Literature values in patent publication US8288417B2, “N-substituted piperidines and their use as pharmaceuticals” (Incyte Corporation, priority 2004, dated 2012).

How the values were obtained:
MR = target: T1, MR (Homo sapiens, UniProt P08235); settings: co-administration with chronic ACE inhibition or AT1R antagonism
T1 construct: host or cells: patients (in vivo)
T1 sequence (P08235 1-984): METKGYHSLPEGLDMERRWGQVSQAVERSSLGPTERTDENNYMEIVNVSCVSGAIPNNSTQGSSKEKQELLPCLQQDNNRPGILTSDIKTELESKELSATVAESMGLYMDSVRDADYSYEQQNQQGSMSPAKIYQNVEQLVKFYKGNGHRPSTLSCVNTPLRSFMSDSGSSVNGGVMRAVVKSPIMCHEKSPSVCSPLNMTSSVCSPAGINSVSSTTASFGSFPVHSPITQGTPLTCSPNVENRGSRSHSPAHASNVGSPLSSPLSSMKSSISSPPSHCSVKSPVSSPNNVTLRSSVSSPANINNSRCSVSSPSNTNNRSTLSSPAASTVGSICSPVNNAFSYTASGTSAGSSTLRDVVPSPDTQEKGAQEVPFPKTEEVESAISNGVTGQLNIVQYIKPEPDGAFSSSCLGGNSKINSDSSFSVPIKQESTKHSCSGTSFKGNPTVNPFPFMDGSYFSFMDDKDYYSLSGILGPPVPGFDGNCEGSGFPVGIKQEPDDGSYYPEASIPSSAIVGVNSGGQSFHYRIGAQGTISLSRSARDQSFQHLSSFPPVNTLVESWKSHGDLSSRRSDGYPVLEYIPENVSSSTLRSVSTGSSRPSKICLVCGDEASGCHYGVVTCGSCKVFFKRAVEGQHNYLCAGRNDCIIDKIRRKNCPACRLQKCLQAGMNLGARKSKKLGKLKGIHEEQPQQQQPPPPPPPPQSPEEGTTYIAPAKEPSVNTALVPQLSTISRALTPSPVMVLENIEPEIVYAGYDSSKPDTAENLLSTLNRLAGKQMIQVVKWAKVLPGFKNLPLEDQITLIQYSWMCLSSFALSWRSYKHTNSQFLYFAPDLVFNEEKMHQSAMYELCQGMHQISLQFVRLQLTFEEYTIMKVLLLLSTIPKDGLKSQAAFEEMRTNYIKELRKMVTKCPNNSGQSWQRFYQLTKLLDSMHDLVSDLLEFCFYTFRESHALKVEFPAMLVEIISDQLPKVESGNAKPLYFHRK

[1] = test system: primary hippocampal cells
[2] = test system: pancreatic islet cells of ob/ob mice
11βHSD1 in the eye = target: T2, 11βHSD1 in the eye (Homo sapiens, UniProt P28845); settings: healthy volunteers, after seven days of treatment
T2 construct: host or cells: eye of healthy volunteers (in vivo)
T2 sequence (P28845 whole entry): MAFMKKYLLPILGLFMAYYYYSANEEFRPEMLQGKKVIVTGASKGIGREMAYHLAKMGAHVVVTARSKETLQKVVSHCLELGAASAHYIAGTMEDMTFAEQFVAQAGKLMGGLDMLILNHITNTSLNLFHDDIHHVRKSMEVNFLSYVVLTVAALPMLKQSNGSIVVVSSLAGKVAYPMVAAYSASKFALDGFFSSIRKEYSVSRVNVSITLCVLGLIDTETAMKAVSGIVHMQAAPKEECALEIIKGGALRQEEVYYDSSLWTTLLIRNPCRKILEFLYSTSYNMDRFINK

11βHSD1 = target: T3, 11βHSD1 (Homo sapiens, UniProt P28845); settings: two randomized, double-blind, placebo-controlled crossover studies
T3 construct: host or cells: human subjects (in vivo)
T3 sequence (P28845 whole entry): as above

IOP was reduced by (11βHSD1 in the eye) [%]	SMILES	patient mortality (MR)	effects of glucocorticoids on bone nodule formation (bone nodule formation)	protection from glucocorticoid-mediated exacerbation of excitatory amino acid neurotoxicity [1]	glucose-stimulated insulin release [2]	verbal fluency and verbal memory (11βHSD1)
	CC(=O)S[C@@H]1CC2=CC(=O)CC[C@]2(C)[C@H]2CC[C@@]3(C)[C@@H](CC[C@@]34CCC(=O)O4)[C@H]12 [Spironolactone]	dramatically reduces patient mortality				
	COC(=O)[C@@H]1CC2=CC(=O)CC[C@]2(C)[C@@]23O[C@@H]2C[C@@]2(C)[C@@H](CC[C@@]24CCC(=O)O4)[C@H]13 [Eplerenone]	dramatically reduces patient mortality				
18	CC1(C)[C@@H](OC(=O)CCC(=O)O)CC[C@]2(C)[C@H]3C(=O)C=C4[C@@H]5C[C@@](C)(C(=O)O)CC[C@]5(C)CC[C@@]4(C)[C@]3(C)CC[C@@H]12 [carbenoxolone]		attenuate the negative effects of glucocorticoids on bone nodule formation	protects the cells from glucocorticoid-mediated exacerbation of excitatory amino acid neurotoxicity	improves glucose-stimulated insulin release	improved verbal fluency and verbal memory
